This data set can be described thus: method code SF-HPLC, from DOI: 10.1021/ac9902291.

For the molecule `c1ccc2c(c1)sc1ccccc12`, the lipophilicity (logP) was found to be 4.36.

In the case of `c1ccc2c(c1)ccc1c3ccsc3ccc21`, the logP was 5.35.

Turning to `c1ccc2c(c1)ccc1ccsc12`, the log partition coefficient (logP) was found to be 4.55.

Regarding `Cc1cccc2ccsc12`, the logP amounted to 3.85.

Molecule `c1ccc2c(c1)ccc1sc3ccccc3c12` displayed a logP of 5.19.

On to `c1ccc2c(c1)ccc1sccc12`, for which the logP is 4.41.

Molecule `O=S1(=O)C=Cc2ccccc21` showed a log partition coefficient (logP) of 1.01.

Consider `Cc1cccc2sccc12`, for which the logP worked out at 3.57.

`c1cc2ccc3cccc4sc(c1)c2c34` showed a logP of 4.95.

`c1ccc2cc3sccc3cc2c1`: the logP amounted to 4.5.

`Cc1cc2ccccc2s1` came in with a log partition coefficient (logP) of 3.71.

These data come from the SangsterLogP compilation.
